Read-outs that look alike come from different tables or passages of the source.
Columns and labels:
HepG2-A16-CD81EGFP cells [1] = system: HepG2-A16-CD81EGFP cells
HepG2-A16-CD81EGFP cells [2] = assay: cells; details: Homo sapiens, HepG2, read-out: % inhibition
HepG2-A16-CD81EGFP cells [3] = assay: cells; details: Homo sapiens, HepG2, read-out: % inhibition; remark: listed apart in the source
[4] = system: Plasmodium berghei (Pb-Luc) exoerythrocytic-stage parasites; assay: microbe, parasite or virus in culture
[5] = read-out: Inhibition% @ 50 uM rep1
[6] = read-out: Inhibition% @ 50 uM rep2

| SMILES | HepG2 Tox% @ 50 uM rep2 (HepG2-A16-CD81EGFP cells [1]; human, 50 uM) [%] | inhibition at 50 µM (HepG2-A16-CD81EGFP cells [2]) [%] | inhibition at 50 µM (HepG2-A16-CD81EGFP cells [3]) [%] | inhibition at 50 µM [4, 5] [%] | inhibition at 50 µM [4, 6] [%] | HepG2 Tox% @ 50 uM rep1 (HepG2-A16-CD81EGFP cells [1]; human, 50 uM) [%] | HepG2 Tox% @ 50 uM rep1 (HepG2-A16-CD81EGFP cells [1]; HepG2, 50 uM, replicate 1) [%] | HepG2 Tox% @ 50 uM rep2 (HepG2-A16-CD81EGFP cells [1]; HepG2, 50 uM, replicate 2) [%] |
| --- | --- | --- | --- | --- | --- | --- | --- | --- |
| CN(C)CCCNc1c2ccccc2nc2ccccc12 [MMV000448] | 100 | 96.8 | 99.5 | 103 | 106 | – | – | – |
| CCCN(CCC)CCCNC(=O)c1cc2c(-c3ccc(OC)c(OC)c3)nn(C)c2s1 [MMV000561] | 100 | 98.1 | 100 | 104 | 106 | – | – | – |
| CCCN(CCC)CC(O)COc1ccccc1C(=O)Nc1ccccc1 (stereo not shown) [MMV006455] | – | -8.15 | 7.57 | 84 | 75 | -8 | – | – |
| Cc1cc(N2CCN(C3CCCC3)CC2)n2c(nc3ccccc32)c1C#N [MMV006706] | -11 | -9.81 | -11.2 | 48 | 24 | -10 | – | – |
| COc1cc2cc(C(=O)Nc3ccccc3)c(N)nc2cc1OC [MMV006767] | 10 | 18.2 | 10.2 | 73 | 39 | – | – | – |
| CN1CCN(c2c3c(c(C#N)c4nc5ccccc5n24)CCC3)CC1 [MMV008127] | -9 | -6.02 | -9.23 | 28 | -16 | – | – | – |
| Cc1cc(C)cc(Nc2cc(C)nc3nc(C(F)(F)F)nn23)c1 [MMV011259] | – | 29.5 | 54.7 | 100 | 99 | 30 | – | – |
| CCOC(=O)C1CCN(C(=O)CN2C(=O)c3ccccc3C2c2c[nH]c3ccccc23)CC1 (stereo not shown) [MMV011576] | -12 | -18.5 | -12.2 | 41 | 58 | -19 | – | – |
| CCN1CCN(c2cc(C)c3cc(NC(=O)c4ccc(OC)c(OC)c4)ccc3n2)CC1 [MMV019074] | 100 | 98.4 | 100 | 104 | 104 | – | – | – |
| Cc1cc(NC(=O)c2cccc(C(F)(F)F)c2)n(-c2nc(-c3ccc4c(c3)OCO4)cs2)n1 [MMV396681] | -14 | -14.6 | -14.2 | 1.11 | -36 | -15 | – | – |
| COc1cccc(C2(C)Nc3ccccc3-c3nc4ccccc4n32)c1 (stereo not shown) [MMV396719] | 100 | 97 | 99.7 | 104 | 106 | – | – | – |
| COc1ccc(C(=O)Nc2ccc(Cl)cc2C(=O)Nc2ccncc2)cc1 [MMV665799] | -10 | -8.2 | -10.4 | 67 | 39 | -8 | – | – |
| CCOC(=O)c1c(NC(=O)c2ccccc2)sc2c(O)c(CN(CC)CC)ccc12 [MMV665831] | – | 26.5 | 34.3 | 96 | 70 | 27 | – | – |
| CCCc1cc(O)c2c3c(c(=O)oc2c1)CN(C)CC3 [MMV665841] | – | 10.6 | 26.3 | 83 | 44 | – | 11 | 26 |
| COc1ccc(-c2nonc2NC(=O)c2cccc(C)c2)cc1OC [MMV665890] | -3 | -1.53 | -2.92 | 7 | 13 | – | – | – |
| CCCCNCC(O)(c1ccc(Cl)cc1)c1ccc(Cl)cc1 [MMV665929] | – | 95.9 | 99.2 | 104 | 105 | – | – | – |

| SMILES | HepG2 Tox% @ 50 uM rep2 (HepG2-A16-CD81EGFP cells [1]; human, 50 uM) [%] | inhibition at 50 µM (HepG2-A16-CD81EGFP cells [2]) [%] | inhibition at 50 µM (HepG2-A16-CD81EGFP cells [3]) [%] | inhibition at 50 µM [4, 5] [%] | inhibition at 50 µM [4, 6] [%] | HepG2 Tox% @ 50 uM rep1 (HepG2-A16-CD81EGFP cells [1]; human, 50 uM) [%] | HepG2 Tox% @ 50 uM rep1 (HepG2-A16-CD81EGFP cells [1]; HepG2, 50 uM, replicate 1) [%] | HepG2 Tox% @ 50 uM rep2 (HepG2-A16-CD81EGFP cells [1]; HepG2, 50 uM, replicate 2) [%] |
| --- | --- | --- | --- | --- | --- | --- | --- | --- |
| O=C(Nc1ccsc1C(=O)NC1CCCCC1)c1ccc(F)cc1 [MMV665939] | – | 25.8 | 35 | 71 | 43 | – | – | – |
| O=C(Nc1ccccc1O)c1ccc(-c2ccc(Cl)cc2Cl)o1 [MMV665948] | – | 15.3 | -7.03 | 8 | -61 | 15 | – | – |
| CCN(CC)CCCNc1nc(-c2ccc(Cl)cc2)nc2ccccc12 [MMV665961] | – | 95 | 87.3 | 101 | 103 | – | – | – |
| CN1c2ccccc2N(C)C1c1ccc2c(c1)OCO2 [MMV666009] | – | 81.6 | 81 | 102 | 105 | – | – | – |
| O=C(Nc1ccc(Cl)cc1C(=O)Nc1ccncc1)c1ccc(Cl)cc1Cl [MMV666057] | – | 78.3 | 94.5 | 101 | 102 | – | – | – |
| COc1cccc(O)c1CN1CCC2(CCCN(Cc3ccc(F)cc3)C2)C1 (stereo not shown) [MMV666061] | – | 96.5 | 98.8 | 103 | 103 | – | – | – |
| Cc1ccc(CN2CCC(C(=O)Nc3ccc(-c4cc5ccccc5[nH]4)cc3)CC2)o1 [MMV666071] | – | 42.7 | 43.9 | 98 | 96 | – | – | – |
| COc1ccc(C2N(C)c3ccccc3N2C)cc1 [MMV666075] | – | 76.8 | 84.3 | 101 | 98 | – | – | – |
| CCn1c(SCC(=O)Nc2cc(C(F)(F)F)ccc2Cl)nc2ccccc2c1=O [MMV666103] | – | -3.72 | -0.573 | 69 | 87 | – | – | – |
| O=C(CCc1ccco1)NC1CCN(CC2(c3ccc(Cl)cc3)CCC2)CC1 [MMV666108] | – | 54.1 | 67.1 | 101 | 102 | – | – | – |
| Oc1ccccc1CN1CCC2(CCCN(Cc3ccccc3F)C2)C1 (stereo not shown) [MMV666116] | – | 73.5 | 85.7 | 98 | 100 | – | – | – |
| CSC1=NC(=Nc2c(C)cccc2C)C2(CCC(C(C)(C)C)CC2)N1c1ccc(Cl)cc1 (stereo not shown) [MMV666596] | – | 88.7 | 89.2 | 104 | 106 | – | – | – |
| CCOC(=O)c1c(C)n(-c2ccc(Cl)cc2)c2ccc(OC(=O)C=Cc3ccccc3)cc12 [MMV666600] | – | 70.5 | 68.1 | 104 | 104 | – | – | – |
| CCOC(=O)C1=C(c2ccccc2)N=c2sc(=Cc3cc(C)n(-c4ccc(F)cc4)c3C)c(=O)n2C1c1cccc(OC)c1OC (stereo not shown) [MMV666601] | – | -7.05 | 8.55 | 84 | 87 | – | – | – |
| COc1ccc(C=C2SC(=N)N(c3ccccc3OC)C2=O)cc1 [MMV666691] | – | 94.9 | 98.5 | 103 | 104 | – | – | – |
